Reference: article PMC11487561 (ACS Chemical Neuroscience, 2024)
Where two headings read alike, the source gives them in different places.

Assays:
human M4 (hM4) = molecular target: T1, human M4 (hM4) (Homo sapiens, UniProt P08173); experiment: Calcium mobilization assay, hM4/Gqi5-CHO cells, EC20 acetylcholine (PAM); type: cell-based; conditions: for Emax: read-out: hM4 %ACh Max; for fold loss in hM4 potency vs comparator: 14e vs 14g, 14c vs VU6007215; for fold decrease in hM4 activity with R1 larger than methyl: relative to the R1 = methyl analogue
T1 construct: expressed in transfected cells
T1 sequence (P08173 1-479): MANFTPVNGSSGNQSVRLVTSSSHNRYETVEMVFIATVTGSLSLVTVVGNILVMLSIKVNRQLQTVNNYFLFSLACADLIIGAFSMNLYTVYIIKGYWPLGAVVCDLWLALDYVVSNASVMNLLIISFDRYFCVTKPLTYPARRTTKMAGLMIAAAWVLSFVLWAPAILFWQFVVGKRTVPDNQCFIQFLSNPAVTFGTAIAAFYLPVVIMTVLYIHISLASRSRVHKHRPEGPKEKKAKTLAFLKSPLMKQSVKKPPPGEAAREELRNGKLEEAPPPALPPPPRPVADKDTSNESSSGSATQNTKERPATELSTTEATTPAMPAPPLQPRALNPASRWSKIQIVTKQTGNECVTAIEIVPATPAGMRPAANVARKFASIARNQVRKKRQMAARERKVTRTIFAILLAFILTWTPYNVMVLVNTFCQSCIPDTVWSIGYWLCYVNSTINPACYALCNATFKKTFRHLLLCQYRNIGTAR

[1] = Rat plasma-to-brain level (PBL) cassette, brain distribution; type: in vivo; conditions: SD rat, 0.2 mg/kg IV, 0.2 mg/kg; for Kp at 0.25 h / Kp uu at 0.25 h: male, Sprague-Dawley, rat, brain / plasma, iv
[2] = Binding in plasma from human (equilibrium dialysis); type: in vitro ADME; conditions: for fraction unbound at 6 h, 5 µM: human, plasma, read-out: human fu,plasma
Method: (§1) Binding in plasma from rat and human.
(§2) Determination of compounds’ fraction unbound (f u) in plasma from rat and human was conducted in vitro via equilibrium dialysis using HTDialysis membrane plates. Dialysis membranes (four paired strips per HTD assay) were hydrated as described by the manufacturer and inserted into the HTD plate, which was assembled and prepared for sample addition by the dispensing of blank buffer (DPBS, 100 µL/well) into the ‘top half’ of each membrane-split well. Each compound was diluted into plasma from each species (5 µM final concentration), which was aliquoted in triplicate to the ‘bottom half’ of the prepared HTD plate wells. The HTD plate was sealed and incubated for 6 hours at 37 °C. Following incubation, each well (both top and bottom halves) were transferred (20 µL) to the corresponding wells of a 96-shallow-well (V-bottom) plate. The daughter plates were then matrix-matched (buffer side wells received equal volume of plasma, and plasma side wells received equal volume of buffer), and extraction solution (120 µL; acetonitrile containing 50 nM carbamazepine as IS) was added to all wells of both daughter plates to precipitate protein and extract test article. The plates were then sealed and centrifuged (3500 rcf) for 10 minutes at ambient temperature. Supernatant (60 µL) from each well of the daughter plates was then transferred to the corresponding wells of new daughter plates (96-shallow-well, V bottom) containing water (Milli-Q, 60 µL/well), and the plates were sealed in preparation for LC-MS/MS analysis (see below). fu was calculated as (analyte to IS MS peak area ratio from Trans-buffer side) / (analyte to IS MS peak area ratio from Cis-plasma side). Mean values for each species were calculated from 3 replicates.

[3] = Binding in brain homogenate from rat (equilibrium dialysis); type: in vitro ADME; conditions: for rat fbrain: fraction unbound, equilibrium dialysis, rat brain homogenates; for fraction unbound at 6 h, 1 µM: rat, brain homogenate, in %, read-out: fu,brain (rat brain homogenate)
Method: Binding in brain homogenate from rat.
Determination of fraction unbound (f u) in brain homogenate from rat was conducted using the same methodology and procedure than described for plasma protein binding assay with the following modifications: 1) a final compound concentration of 1 μM was used, 2) naïve rat brains were homogenized in DPBS (1:3 composition of brain: DPBS, w/w) using a Mini-Bead Beater™ machine in order to obtain […]
The diluted fraction unbound (f u2) in brain was calculated as (analyte to IS MS peak area ratio from Trans-buffer side) / (analyte to IS MS peak area ratio from Cis-brain homogenate side). Undiluted fraction unbound for the brain was calculated using the following equation: […]
Mean values for each species were calculated from 3 replicates. […]

[4] = Intrinsic clearance in rat liver microsomes; type: in vitro ADME; conditions: pH 7.4; rat liver microsomes
Method: (§3) Intrinsic Clearance in Rat and Human Liver Microsomes
(§4) The in vitro intrinsic clearance (CL int) was investigated in commercially obtained hepatic microsomes from rat and human donors using the substrate depletion (i.e., loss-of-parent vs. time, or t 1/2 method) approach with analyte detection via liquid chromatography-tandem mass spectrometry (LC-MS/MS). For each species, mean %parent remaining values at each time point were calculated from replicates raw data (analyte:IS peak area ratios) and used to determine in vitro t 1/2 and CLint.
(§5) Experiments were carried out using a robot-assisted (TECAN model Evo 200). Compound was incubated (1 µM final concentration) in buffer (100 mM potassium phosphate pH 7.4 with 3 mM MgCl2) containing hepatic microsomes (0.5 mg/mL final concentration) from multiple species, discretely, at 37 °C under constant orbital shaking. After 5 minutes (pre-incubation), reactions were initiated by addition of nicotinamide adenine dinucleotide phosphate (NADPH, 1 mM final concentration). At selected time intervals (0, 3, 7, 15, 25, and 45 minutes) post-addition of NADPH, aliquots (50 µL) were taken and placed into a 96-shallow-well plate containing ice cold acetonitrile (150 µL) with carbamazepine (IS, 50 nM). The plates were then centrifuged (3000 rcf at 4 °C) for 10 minutes. The supernatants were transferred to a new 96-shallow-well daughter plate and diluted (1:1 v/v) with water (Milli-Q filtered). The plates were then sealed in preparation for LC-MS/MS analysis (see below).
(§6) Raw LC-MS/MS peak area data generated from the assay samples were used to construct natural log-transformed %parent remaining vs. time plots (using t = 0 minute post-NADPH addition sample data as starting point set to 100%). In vitro compound half-life (t 1/2) values were obtained using the following […]
(§7) k is the slope from linear regression analysis of the natural log-transformed data (using means from Where all replicates at each time point). Resulting t 1/2 values were then used to calculate hepatic CLint values according to the following equation and with the use of species-specific scale-up factors for liver weight (grams) per total body weight (kg): […]
(§8) CLint = in vitro t1/2 x 0.5 mg microsomes x 1 gram liver x kg body wt aScale-up factors used are 45 (rat) and 20 (human).2
(§9) Predicted hepatic clearance (CLhep) was calculated using the following equation: […]
(§10) Qh represents hepatic blood flow (mL/min/kg): 21 for human, 70 for rat, and 90 for mouse.
(§11) Prepared samples were injected (10 µL each) onto an AB Sciex Triple Quad 4500 mass spectrometer system with an Agilent 1260 Infinity II pump and autosampler. Mass spectrometer conditions are described in Table S1. Quantitation of compounds was performed via AB Sciex Multiquant software using the raw analyte:IS peak area ratios. The typical detection range was 0.5 ng/mL to ≥ 5,000 ng/mL utilizing a quadratic equation regression with 1/x2 weighting. […]
(§12) Table S1. LC-MS/MS Conditions*
(§13) Mobile phase A 0.5% Formic Acid in Water
(§14) Mobile phase B 0.5% Formic Acid in Acetonitrile
(§15) Gradient Time % Mobile Phase B

[5] = Binding in plasma from rat (equilibrium dialysis); type: in vitro ADME; conditions: read-out: rat fu,plasma
Method: as §1, §2

[6] = Intrinsic clearance in human liver microsomes; type: in vitro ADME; conditions: pH 7.4; human liver microsomes
Method: as §3, §4, §5, §6, §7, §8, §9, §10, §11, §12, §13, §14, §15

[7] = calcium mobilization, hM4/Gqi5-CHO cells, EC20 acetylcholine, read-out: hM4 EC50
[8] = calcium mobilization, hM4/Gqi5-CHO cells, EC20 acetylcholine, read-out: hM4 pEC50 (converted)
[9] = calcium mobilization, hM4/Gqi5-CHO cells, EC20 acetylcholine
[10] = total brain to total plasma ratio
[11] = unbound brain to unbound plasma ratio
[12] = fraction unbound, equilibrium dialysis

Compound | EC50 (human M4 (hM4); [7]) | Emax (human M4 (hM4); [9]) | hM4 pEC50 (human M4 (hM4); [9]) | further results
Cc1nc(C)c2c(n1)sc1c(N3CCCCC3)ncnc12 [14a] | > 30 µM |  |  | EC50 (human M4 (hM4); [8]): > 31.6 µM
Cc1nc(C)c2c(n1)sc1c(N3CCOCC3)ncnc12 [14b] | 5.6 µM | 39% |  | EC50 (human M4 (hM4); [8]): 5.5 µM
Cc1nc(C)c2c(n1)sc1c(N3CC4(COC4)C3)ncnc12 [14c] | 1.6 µM | 76% | 5.80 | fold loss in hM4 potency vs comparator (human M4 (hM4)): 11 fold
Cc1nc(C)c2c(n1)sc1c(N3CCC3)ncnc12 [14d] | 1.4 µM | 60% | 5.84 | 
Cc1nc(C)c2c(n1)sc1c(N3CCC(F)(F)C3)ncnc12 [14e] | 0.64 µM | 77% | 6.20 | fold loss in hM4 potency vs comparator (human M4 (hM4)): 2.2 fold
Cc1nc(C)c2c(n1)sc1c(NC3CCCC3)ncnc12 [14f] | 0.56 µM | 56% | 6.25 | 
Cc1nc(C)c2c(n1)sc1c(N3CCCC3)ncnc12 [14g] | 0.29 µM | 52% | 6.54 | 
Cc1nc(C)c2c(n1)sc1c(N3CC4CC4C3)ncnc12 (centres unmarked) [14i] | 0.16 µM | 76% | 6.81 | Kp, brain:plasma ([1]; 0.25 h, total brain to total plasma ratio): 7.27; Kp,uu, brain:plasma ([1]; 0.25 h, unbound brain to unbound plasma ratio): 1.82; Kp at 0.25 h [1, 10]: > 5; Kp uu at 0.25 h [1, 11]: > 1; fraction unbound at 6 h, 5 µM [2, 12]: 0.013; fraction unbound at 6 h, 5 µM ([2]; in %): 0.01 to 0.05; rat fbrain [3]: 0.012; fraction unbound at 6 h, 1 µM [3]: 0.01 to 0.05; CLint scaled at 1 µM [4]: 1050 mL/min/kg; fraction unbound at 6 h, 5 µM [5, 12]: 0.048; fraction unbound at 6 h, 5 µM ([5]; in %): > 0.05; CLint scaled at 1 µM [6]: 177 mL/min/kg
Cc1nc(C)c2c(n1)sc1c(NCc3ccc(C(C)(C)O)cc3)ncnc12 [14j] | 1.3 µM | 70% | 5.90 | EC50 (human M4 (hM4); in μM, read-out: hM4 EC50): > 1 µM
COc1ccc(CNc2ncnc3c2sc2nc(C)nc(C)c23)cc1F [14k] | 1.2 µM | 65% | 5.94 | EC50 (human M4 (hM4); in μM, read-out: hM4 EC50): > 1 µM
Cc1nc(C)c2c(n1)sc1c(NCc3ccc(C(C)(C)O)cc3)ncc(C3CC3)c12 [compound 27] |  |  |  | EC50 (human M4 (hM4); [8]): > 31.6 µM
Cc1nc(C)c2c(n1)sc1c(NCc3ccc(C(C)(C)O)cc3)ncc(C#N)c12 [compound 28] | 0.96 µM | 62% |  | 

Continued, in another order:

EC50 (human M4 (hM4); [7]) | Emax (human M4 (hM4); [9]) | hM4 pEC50 (human M4 (hM4); [9]) | Compound | further results
 | 38% |  | CCN(CC)c1nccc2c1sc1nc(C)nc(C)c12 [22a] | 
> 10 µM | 52% |  | Cc1nc(C)c2c(n1)sc1c(N3CCN(C)CC3)nccc12 [22b] | 
 | 95% | 6.52 | Cc1nc(C)c2c(n1)sc1c(NC3CCC3)nccc12 [22c] | 
0.13 µM | 73% | 6.87 | Cc1nc(C)c2c(n1)sc1c(NC3CCCC3)nccc12 [22d] | 
< 0.19 µM | 58% |  | Cc1nc(C)c2c(n1)sc1c(N3CCCCC3)nccc12 [22e] | Kp at 0.25 h [1, 10]: 7.77; Kp uu at 0.25 h [1, 11]: 1.64; fraction unbound at 6 h, 5 µM [2, 12]: 0.007; fraction unbound at 6 h, 5 µM ([2]; in %): < 0.01; human fu,plasma ([2]; in %): highly bound; rat fbrain [3]: 0.004; fraction unbound at 6 h, 1 µM [3]: < 0.01; CLint scaled at 1 µM [4]: 3440 mL/min/kg; fraction unbound at 6 h, 5 µM [5, 12]: 0.019; EC50 (human M4 (hM4); [8]): 0.0741 µM; CLint scaled at 1 µM [6]: 134 mL/min/kg
 | 89% | 6.08 | Cc1nc(C)c2c(n1)sc1c(NCc3ccc(C(C)(C)O)cc3F)nccc12 [22h] | 
0.28 µM | 86% |  | Cc1nc(C)c2c(n1)sc1c(NCc3ccc(C(C)(C)O)c(F)c3)nccc12 [22i] | fraction unbound at 6 h, 1 µM [3]: < 0.01
 | 66% |  | Cc1nc(CC(C)C)nc2sc3c(NCc4ccc(C(C)(C)O)cc4)nccc3c12 [22n] | fold decrease in hM4 activity with R1 larger than methyl (human M4 (hM4)): > 66 fold
1.4 µM | 97% | 5.86 | Cc1nc(C2CC2)nc2sc3c(NCc4ccc(C(C)(C)O)cc4)nccc3c12 [22o] | fold decrease in hM4 activity with R1 larger than methyl (human M4 (hM4)): 9.3 fold
0.77 µM | 81% |  | CCc1nc(C)c2c(n1)sc1c(NCc3ccc(C(C)(C)O)cc3)nccc12 [22p] | fold decrease in hM4 activity with R1 larger than methyl (human M4 (hM4)): 4.0 fold
1 µM | 65% | 6.00 | Cc1nc(C2CC2)nc2sc3c(N4CCCC4)nccc3c12 [22q] | fold decrease in hM4 activity with R1 larger than methyl (human M4 (hM4)): > 13 fold
0.57 µM | 109% |  | Cc1nc(C)c2c(n1)sc1c(C3CC3)nccc12 [23a] | 
0.24 µM | 86% |  | Cc1nc(C)c2c(n1)sc1c(CC(C)(C)C)nccc12 [23b] | 
 | 92% | 5.48 | Cc1nc(C)c2c(n1)sc1c(NCc3ccc(C(C)(C)O)cc3)ncc(Cl)c12 [26a] | 
0.69 µM | 61% |  | Cc1nc(C)c2c(n1)sc1c(N3CCCC3)ncc(Cl)c12 [26b] | 
